Laboratory results reported in patent US12661342B2, “Heteroaryl compounds and therapeutic uses thereof in conditions associated with the alteration of the activity of beta-glucocerebrosidase” (GT GAIN THERAPEUTICS SA, priority 2019, dated 2026).

target: T1, β-glucocerebrosidase (Homo sapiens, UniProt P04062, L483P); experiment: Enhancement of β-glucocerebrosidase activity measured in Gaucher disease fibroblasts (4-MU-β-D-glucopyranoside substrate, intact cells); assay type: cell-based; set-up: key: Increase in comparison with non-treated of >2.0 fold is shown as A; Increase in comparison with non-treated of >1.7-2.0 fold is shown as B; Increase in comparison with non-treated of 1.2-1.7 fold is shown as C; D means that no increase compared with non-treated cells was detected in this method; conditions: GBA fibroblasts bearing L444P (GM08760A, homozygous p.L444P); compound at concentrations between 6 and 50 μM; 4 days incubation
T1 construct: host or cells: human Gaucher disease patient fibroblasts GM08760A
T1 sequence (P04062 40-536 L483P): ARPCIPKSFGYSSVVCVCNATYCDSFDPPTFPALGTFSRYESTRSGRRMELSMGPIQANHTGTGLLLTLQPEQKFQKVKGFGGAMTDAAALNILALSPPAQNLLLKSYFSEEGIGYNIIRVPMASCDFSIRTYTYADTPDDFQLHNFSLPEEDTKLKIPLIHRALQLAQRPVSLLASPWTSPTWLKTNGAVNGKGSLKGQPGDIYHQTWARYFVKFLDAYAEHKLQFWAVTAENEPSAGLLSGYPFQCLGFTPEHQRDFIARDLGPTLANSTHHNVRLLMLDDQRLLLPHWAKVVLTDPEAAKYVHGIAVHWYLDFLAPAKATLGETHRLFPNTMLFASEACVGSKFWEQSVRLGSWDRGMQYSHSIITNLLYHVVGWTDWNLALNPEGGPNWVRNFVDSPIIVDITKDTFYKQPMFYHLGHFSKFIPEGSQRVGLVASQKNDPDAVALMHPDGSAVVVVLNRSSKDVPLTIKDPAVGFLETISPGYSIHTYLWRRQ
Summary of the method: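 Patient fibroblasts homozygous for p.L444P (GM08760A), grown in DMEM/10% FBS and exposed to compound for 4 days. Intact cells then given 4-MU-β-D-glucopyranoside in 0.1 M acetate pH 4, 1 h, 37 °C; stopped at pH 10.7, 4-MU fluorescence ex 340/em 460. Value is fold increase over untreated cells; binned at 6–50 μM.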

SMILES | Range: increase in enzyme activity in comparison with non-treated cells (Enzyme activity assay for compounds of Examples 33-141)
Nc1cc(Nc2cccc3c2OCO3)nc(C(=O)NC2Cc3ccccc3C2)c1 [Example 89, 4-Amino-6-(benzo[d][1,3]dioxol-4-ylamino)-N-(2,3-dihydro-1H-inden-2-yl)picolinamide] | C (Increase in comparison with non-treated of 1.2-1.7 fold is shown as C)
Cc1cccc(Nc2cc(N)cc(C(=O)NC3Cc4ccccc4C3)n2)c1F [Example 90, 4-Amino-N-(2,3-dihydro-1H-inden-2-yl)-6-((2-fluoro-3-methylphenyl)amino)picolinamide] | C (Increase in comparison with non-treated of 1.2-1.7 fold is shown as C)
Cc1cccc(Nc2cc(N)cc(C(=O)NC3Cc4ccccc4C3)n2)c1O [Example 91, 4-Amino-N-(2,3-dihydro-1H-inden-2-yl)-6-((2-hydroxy-3-methylphenyl)amino)picolinamide] | B (Increase in comparison with non-treated of >1.7-2.0 fold is shown as B)
Nc1cc(Nc2cccc(F)c2)nc(C(=O)NC2Cc3ccccc3C2)c1 [Example 92, 4-Amino-N-(2,3-dihydro-1H-inden-2-yl)-6-((3-fluorophenyl)amino)picolinamide] | A (Increase in comparison with non-treated of >2.0 fold is shown as A)
COc1ccccc1Nc1cc(N)cc(C(=O)Nc2ccccc2)n1 [Example 93, 4-Amino-6-((2-methoxyphenyl)amino)-N-phenylpicolinamide] | B (Increase in comparison with non-treated of >1.7-2.0 fold is shown as B)
Nc1cc(Nc2cccc3c2OCO3)nc(C(=O)Nc2ccccc2)c1 [Example 94, 4-Amino-6-(benzo[d][1,3]dioxol-4-ylamino)-N-phenylpicolinamide] | B (Increase in comparison with non-treated of >1.7-2.0 fold is shown as B)
Nc1cc(Nc2cccc3c2OCO3)nc(C(=O)N2Cc3ccccc3C2)c1 [Example 95, (4-Amino-6-(benzo[d][1,3]dioxol-4-ylamino)pyridin-2-yl)(isoindolin-2-yl)methanone] | C (Increase in comparison with non-treated of 1.2-1.7 fold is shown as C)
COc1ccccc1Nc1cc(N)cc(C(=O)N2Cc3ccccc3C2)n1 [Example 96, (6-(2-Methoxyphenylamino)-4-aminopyridin-2-yl)(isoindolin-2-yl)methanone] | C (Increase in comparison with non-treated of 1.2-1.7 fold is shown as C)
Cc1cccc(Nc2cc(N)cc(C(=O)NC3Cc4ccccc4C3)n2)c1 [Example 97, 4-Amino-N-(2,3-dihydro-1H-inden-2-yl)-6-(m-tolylamino)picolinamide] | A (Increase in comparison with non-treated of >2.0 fold is shown as A)
Nc1cc(Nc2ccc(F)cc2)nc(C(=O)NC2Cc3ccccc3C2)c1 [Example 98, 4-Amino-N-(2,3-dihydro-1H-inden-2-yl)-6-((4-fluorophenyl)amino)picolinamide] | B (Increase in comparison with non-treated of >1.7-2.0 fold is shown as B)
N#Cc1ccccc1Nc1cc(N)cc(C(=O)NC2Cc3ccccc3C2)n1 [Example 99, 4-Amino-6-((2-cyanophenyl)amino)-N-(2,3-dihydro-1H-inden-2-yl)picolinamide] | D
COc1cccc(Nc2cc(N)cc(C(=O)NC3Cc4ccccc4C3)n2)c1 [Example 100, 4-Amino-N-(2,3-dihydro-1H-inden-2-yl)-6-((3-methoxyphenyl)amino)picolinamide] | A (Increase in comparison with non-treated of >2.0 fold is shown as A)
Nc1cc(Nc2ccccc2Cl)nc(C(=O)NC2Cc3ccccc3C2)c1 [Example 101, 4-Amino-6-((2-chlorophenyl)amino)-N-(2,3-dihydro-1H-inden-2-yl)picolinamide] | B (Increase in comparison with non-treated of >1.7-2.0 fold is shown as B)
Nc1cc(Nc2cccnc2)nc(C(=O)NC2Cc3ccccc3C2)c1 [Example 102, 4-Amino-N-(2,3-dihydro-1H-inden-2-yl)-6-(pyridin-3-ylamino)picolinamide] | C (Increase in comparison with non-treated of 1.2-1.7 fold is shown as C)
Nc1cc(Nc2ccccc2F)nc(C(=O)N2Cc3ccccc3C2)c1 [Example 103, (6-(2-Fluorophenylamino)-4-aminopyridin-2-yl)(isoindolin-2-yl)methanone] | C (Increase in comparison with non-treated of 1.2-1.7 fold is shown as C)
Nc1cc(Nc2ccccc2O)nc(C(=O)N2Cc3ccccc3C2)c1 [Example 104, (4-Amino-6-((2-hydroxyphenyl)amino)pyridin-2-yl)(isoindolin-2-yl)methanone] | C (Increase in comparison with non-treated of 1.2-1.7 fold is shown as C)
Nc1cc(Nc2cccc(F)c2)nc(C(=O)N2CCN(c3ccccc3)CC2)c1 [Example 105, (4-Amino-6-((3-fluorophenyl)amino)pyridin-2-yl)(4-phenylpiperazin-1-yl)methanone] | B (Increase in comparison with non-treated of >1.7-2.0 fold is shown as B)
COc1ccccc1Nc1cc(N)cc(C(=O)N(C)C2Cc3ccccc3C2)n1 [Example 106, 4-Amino-N-(2,3-dihydro-1H-inden-2-yl)-6-((2-methoxyphenyl)amino)-N-methyl-picolinamide] | C (Increase in comparison with non-treated of 1.2-1.7 fold is shown as C)
CN(C(=O)c1cc(N)cc(Nc2cccc(F)c2)n1)C1Cc2ccccc2C1 [Example 107, 4-Amino-N-(2,3-dihydro-1H-inden-2-yl)-6-((3-fluorophenyl)amino)-N-methylpicolinamide] | C (Increase in comparison with non-treated of 1.2-1.7 fold is shown as C)
Cc1c(F)cccc1Nc1cc(N)cc(C(=O)NC2Cc3ccccc3C2)n1 [Example 108, 4-Amino-N-(2,3-dihydro-1H-inden-2-yl)-6-((3-fluoro-2-methylphenyl)amino)picolinamide] | B (Increase in comparison with non-treated of >1.7-2.0 fold is shown as B)
Nc1cc(Nc2cc(F)cc(F)c2)nc(C(=O)NC2Cc3ccccc3C2)c1 [Example 109, 4-Amino-6-((3,5-difluorophenyl)amino)-N-(2,3-dihydro-1H-inden-2-yl)picolinamide] | A (Increase in comparison with non-treated of >2.0 fold is shown as A)
CN(C(=O)c1cc(N)cc(Nc2ccccc2O)n1)c1ccccc1 [Example 110, 4-Amino-6-((2-hydroxyphenyl)amino)-N-methyl-N-phenylpicolinamide] | C (Increase in comparison with non-treated of 1.2-1.7 fold is shown as C)
Nc1cc(Nc2ccccc2F)nc(C(=O)Nc2ccc3c(c2)OCCO3)c1 [Example 111, 4-Amino-N-(2,3-dihydrobenzo[b][1,4]dioxin-6-yl)-6-((2-fluorophenyl)amino)picolinamide] | A (Increase in comparison with non-treated of >2.0 fold is shown as A)
Nc1cc(Nc2cccc(O)c2)nc(C(=O)NC2Cc3ccccc3C2)c1 [Example 112, 4-Amino-N-(2,3-dihydro-1H-inden-2-yl)-6-((3-hydroxyphenyl)amino)picolinamide] | A (Increase in comparison with non-treated of >2.0 fold is shown as A)
COc1ccccc1Nc1cc(N)cc(C(=O)N(C)c2ccccc2)n1 [Example 113, 6-(2-Methoxyphenylamino)-4-amino-N-methyl-N-phenylpyridine-2-carboxamide] | C (Increase in comparison with non-treated of 1.2-1.7 fold is shown as C)
